US11464751B2, “Use of fluoroethylnormemantine for the prevention and treatment of anxiety” (REST THERAPEUTICS, priority 2017, dated 2022)

Legend:
Type in all cases: in vivo, rat
[1] = tested on: naive rats (Wistar); test: Open-field test (locomotor activity and anxiety)
Description: Thus, to test state anxiety, several animal models are commonly used and have been validated by numerous studies: • open field test: This consists of forcibly exposing the animal (rat or mouse) to a new environment and observing its behavior. […] Locomotor activity and behavior are then assessed by recording the number of crossings of the grid lines, the frequency of retreats, the number of entries and the time spent in the central squares. This animal model is considered a good model of “normal” anxiety when adapting to a new environment. It has good predictability of human response to treatment (L. Prut, European Journal of Pharmacology 463 (2003) 3-33). The open-field test is also useful, when it is prolonged (behavioral recording time over 2 hours), as it allows monitoring the motor activity of the animals and thus their state of wakefulness, whereas measurements at short times give information on anxiety. • the light-dark box test: another animal model of anxiety is based on the aversive properties of an open-field space and on the comparison of exploratory activities in a lit compartment and in a dark compartment under the influence of anxiolytic substances (M Bourin, European Journal of Pharmacology 463 (2003) 55-65). This paradigm is based on rodents' innate aversion to bright places and on rodents' spontaneous exploratory behavior in response to stressful environments (new environment or light). The test device is divided into two compartments, one is small, dark and safe, the second is large, bright and stressful. This paradigm allows the prediction of anxiolytic or anxiogenic drug-like activities in mice. Passages between each compartment are a cue of exploration activity, while the time spent in each compartment reflects aversion. Anxiolytics, effective in humans, classic (benzodiazepines) as well as more recent anxiolytic compounds (serotonergic drugs or drugs acting on neuropeptide receptors) can be detected by this animal model which has the advantage of being simple and quick to use. • The open-field test with light gradient: the two models described above can be judiciously coupled in order to check the anxiolytic potential of a molecule, by eliminating the “burrow” effect induced by the presence of the dark compartment.
(§1) In the following examples, the effects of memantine, propranolol and fluoroethylnormemantine (FENM, the subject of the present invention) are studied in naive rats (Wistar) subjected to various tests related to depression or anxiety and then compared.
(§2) The test substances are administered to rats intraperitoneally in a volume of 5 ml/kg, 30 minutes before the behavioral tests are performed.
(§3) The injected solutions contain either of the molecules in the form of one of their salts, a hydrochloride (memantine·HCl and FENM·HCl) for the nitrogen derivatives and as such for propranolol, at the concentrations indicated below in a mixture of 95% (NaCl 0.9% ww in water)/5% ethanol. In each experiment, the dose per kilogram is referenced.
In this way, the animals are given a constant volume of solution (to the nearest difference in weight) equal to 5 ml/kg, or 1.5 ml for a 300 g rat.
For each paradigm, and each solution tested, 12 rats are subjected to injection and behavioral testing. The control solution is a saline solution.
• Open-field test: The locomotor activity of the animals and the “normal” anxiety associated with the discovery of an unknown environment are measured in an open field using a video monitoring system for 2 hours, 30 minutes after the injection of the solutions to be tested. The recorded data include, with a reading every 5 minutes, the time spent in the central squares, vertical activity, and the number of displacements.

[2] = tested on: naive rats (Wistar); test: Forced swimming test; conditions: for Rat behavior over the period of time 1 to 6 minutes: frenetic movement / Rat behavior over the period of time 1 to 6 minutes: immobility (ies): second day, 30 min before; for Rat behavior over the period of time 1 to 6 minutes: immobility (ies): in s
Description: • the forced swimming test: This test has been used for a number of years with rats or mice to test the activity of antidepressants (F. Borsini, Psychopharmacology (1988) 94:147-160) and consists of placing the animal in a bowl filled with room-temperature water. After 15 minutes (pre-test session), the animal is taken out of the water and dried. Twenty-four hours later, the animal is again exposed to the previous conditions and the time of total immobility for a period of 5 minutes is recorded (test session). The animal is considered immobile when it performs only the movements necessary to keep its head out of the water. This immobility is easier to assess in rats than in mice, which have less explicit movements.
as §1, §2, §3
In the forced swimming test, rats (12 per group) are forced to swim in a tank filled with 23° C. water (10 minutes on the first day to allow for habituation to the medium and 6 minutes on the second day).
The behavior of the rats (stopping swimming, decreasing activity) is quantified by a video monitoring system.
The therapeutic solutions to be tested are administered on the second day 30 minutes before the experiment.

[3] = tested on: naive rats (Wistar); test: Pre-pulse inhibition (PPI) test, sensory filtering
Text: • Pre-pulse inhibition (PPI) test: One of the major problems of treatments targeting the central nervous system remains the achievement of the desired effect without the appearance of crippling psychological side effects, even exceeding the therapeutic benefit of the treatment. These effects are often significant (the rebound effect of benzodiazepines) or even paradoxical (the anxiety-producing effect of short-term serotonin reuptake inhibitors). In particular, they can induce a destabilization of sensory filtering and generate symptoms similar to schizophrenia.
Pre-impulse inhibition testing is based on the brain's ability to adapt to a moderate-intensity stimulus in order to limit the effect of the same high-intensity stimulus. In this test, the animals are placed in a soundproof cage and subjected either to a sound pulse of 120 decibels (dB) or to a sequence of 2 pulses spaced about 100 milliseconds apart, the second pulse being of fixed intensity of 120 dB and the first of variable intensity between 70 and 85 dB).
In animals with psychotic disorders of a schizophrenic nature, this inhibition is more or less eliminated.
as §1, §2, §3
Pre-impulse inhibition testing is based on the brain's ability to adapt to a moderate-intensity stimulus in order to limit the effect of the same high-intensity stimulus. In this test, the animals (12 per group) are placed in a soundproof cage and subjected either to a sound pulse of 120 decibels (dB) or to a sequence of 2 pulses spaced about 100 milliseconds apart, the second pulse being of a fixed intensity of 120 dB and the first of variable intensity between 70 and 85 dB).

For `CC12CC3CC(C)(C1)CC(N)(C3)C2` [Memantine, memantine], the “Mean time spent in the central squares per time interval” value (shortened to “Mean time spent … per time interval”) ([1]; 10 mg/kg i.p., 30 min before test, 0-5 min) was 90.4 s, the Vertical activity ([1]; 10 mg/kg i.p., 0-5 min) was 11.33 and the “Mean time spent … per time interval” value ([1]; 10 mg/kg i.p., 0-10 min) was 136.8 s. The Vertical activity ([1]; 10 mg/kg i.p., 0-10 min) was 16.00, the “Mean time spent … per time interval” value ([1]; 10 mg/kg i.p., 0-120 min) was 1874.8 s and the Number of displacements ([1]; 10 mg/kg i.p., 0-120 min) was 750. The Vertical activity ([1]; 10 mg/kg i.p., 0-120 min) was 60.08, the “Mean time spent … per time interval” value ([1]; 10 mg/kg i.p., 5-10 min) was 46.3 s and the Vertical activity ([1]; 10 mg/kg i.p., 5-10 min) was 4.67. The “drowsiness effect / overall activity level of the animals” value ([1]; open field over 2 hours, FENM even at high doses, memantine 10 mg/kg) was “decreases the overall activity level”, the “Rat behavior over the period of time 1 to 6 minutes: frenetic movement” value (“Rat behavior over the period … frenetic movement” for short) ([2]; 1 mg/kg i.p.) was 55.1 s and the “Rat behavior over the period of time 1 to 6 minutes: immobility (ies)” value (“Rat behavior over the period … (ies)” for short) ([2]; 1 mg/kg i.p.) was 139.8. For the same compound, the “Rat behavior over the period … frenetic movement” value ([2]; 3 mg/kg i.p.) was 48.7 s, the “Rat behavior over the period … (ies)” value ([2]; 3 mg/kg i.p.) was 145.7 and the “Rat behavior over the period … frenetic movement” value ([2]; 10 mg/kg i.p.) was 67.2 s. The “Rat behavior over the period … (ies)” value ([2]; 10 mg/kg i.p.) was 119.7, the “immobility time compared with control” value ([2]; all dose levels, particularly 10 mg/kg, p<0.001) was “very significant (p<0.001) decrease” and the “Percentage of pre-pulse inhibition, Average” value ([3]; 10 mg/kg i.p., average over first pulse intensities) was 31%. For the same compound, the “Percentage of pre-pulse inhibition as a function of the intensity of the first pulse” value ([3]; 10 mg/kg i.p., first pulse 72 dB) was 19%, the “Percentage of pre-pulse inhibition as a function of the intensity of the first pulse” value ([3]; 10 mg/kg i.p., first pulse 76 dB) was 24% and the “Percentage of pre-pulse inhibition as a function of the intensity of the first pulse” value ([3]; 10 mg/kg i.p., first pulse 80 dB) was 36%. For the same compound, the “Percentage of pre-pulse inhibition as a function of the intensity of the first pulse” value ([3]; 10 mg/kg i.p., first pulse 84 dB) was 44% and the “effect on PPI (schizophrenia-inducing effect)” value ([3]; memantine 10 mg/kg (p<0.01), FENM even at high dose (20 mg/kg)) was “induces an inhibition of the PPI effect”.
